Results published in patent EP2966448B1, “METHOD FOR THE PREDICTION OR PROGNOSIS OF THE RESPONSE OF A HUMAN SUBJECT SUFFERING FROM CANCER TO TREATMENT WITH AN ANTAGONIST OF THE NK1 RECEPTOR” (priority 2013, dated 2014).
Read-outs that look alike come from different tables or passages of the source.

Experiments:
Gastric carcinoma = test: Inhibition of primary tumor cell cultures (48 hours) vs NK1 receptor immunostaining (Example 1); assay type: cell-based; settings: Homo sapiens, 1 micromolar, read-out: Percentage of inhibition of cell cultures
Protocol: (§1) Cell cultures. To obtain tumor cells from human primary tumors we used the method described in De Bari et al. (De Bari et al. 2001). Briefly, small pieces of the tumors were digested into a hyaluronidase solution (Sigma-Aldrich, USA) at a concentration of 1 mg/ml during 15 minutes at 37°C, and then they were treated with 6 mg/ml of collagenase type IV (Invitrogen) during 2 hours at 37°C. Consecutively, cells were washed, and resuspended in the DMEM culture medium with high concentration of glucose (Dulbecco's Modified Eagle's Medium, Invitrogen) supplemented with 1% of antibiotics-antimycotics (Invitrogen) and with 1% of sodium pyruvate (Invitrogen), and the cells were seeded in culture slides at a concentration of 10.000 cells per square centimeter. When cells reached confluence, the adherent cells were separated using sterile trypsin at 0,5% (Invitrogen) and they were used among passages 3 and 9. For the assays shown next, tumor cells were seeded on slides at a concentration of 25.000 cells per well. A total of 6 wells containing the tumor cells were used as survival control. […] All the cultures were kept during 48 hours and later on recollected for their analysis.
(§2) Immunohistochemistry techniques. The presence of NK1 receptors was also analyzed using immunohistochemistry techniques. Briefly, a sample of each of the cultures of the cell lines used in the present invention, was centrifuged (5 minutes at 1.500 rpm) and the pellet obtained was dehydrated using increasing concentrations of ethanol and, finally, xylol. Then, said dehydrated samples were embedded in paraffin, creating a block of cells. Such paraffin blocks were cut with a microtome at 5 microns thickness, and were placed on microscope slides adequate to perform immunohistochemistry techniques. Consecutively, they were de-paraffinized by immersing them in xylol, to be finally hydrated using a solution containing decreasing concentrations of ethanol, and finally submerged them into water. […] After this, the samples were left to cool down at room temperature for 10 minutes. The endogenous peroxidase activity was blocked with 3% peroxide of hydrogen for 30 minutes at room temperature. After washing the samples with 0.05 M of Tris buffer, they were incubated with 10% non-immune pork serum at for 30 minutes at room temperature. To analyze the expression of NK1 receptors, the cellular samples were incubated in the presence of anti-NK1 antibodies (S8305, Sigma-Aldrich) diluted 1:1000, overnight at 4°C. Afterwards, the samples were washed in Tris buffer 0.05 M at room temperature. The next step was the addition of Envision System-HRP (Dako) reagents for 30 minutes at room temperature. Then, the samples were washed again in Tris buffer 0.05 M and the immunoreactivity was visualized through light microscopy with a chromogenic solution containing 3,3'-Diaminobenzidine (DAB+; Dako, USA). To differentiate the cell nuclei, they were slightly stained with hematoxylin. As negative control, it was used samples not incubated with the primary antibody anti-NK1, which was replaced by non-immune serum. All the samples were evaluated.
(§3) To value the immunostaining in each of the cases six cuts were performed to be analyzed by the immunohistochemistry technique. In each of the six cuts, it was counted cells in 20 fields (magnification 400x) using an Olympus microscope (model CX31). In each field it was counted the total number of cells and the number of cells presenting immunostaining, calculating afterwards the percentage of cells which presented immunostaining.

Colon carcinoma = test: as above; assay type: cell-based; settings: Homo sapiens, 1 micromolar, read-out: Percentage of inhibition of cell cultures
Protocol: as §1, §2, §3

Renal cell carcinoma = test: as above; assay type: cell-based; settings: Homo sapiens, 1 micromolar, read-out: Percentage of inhibition of cell cultures
Protocol: as §1, §2, §3

[1] = test system: Carcinoma of the uterine cervix; test: as above; assay type: cell-based; settings: Homo sapiens, 1 micromolar, read-out: Percentage of inhibition of cell cultures
Protocol: as §1, §2, §3

[2] = test system: Lung carcinoma (small cell type); test: as above; assay type: cell-based; settings: Homo sapiens, 1 micromolar, read-out: Percentage of inhibition of cell cultures
Protocol: as §1, §2, §3

[3] = test system: Thyroid carcinoma (folliculary type); test: as above; assay type: cell-based; settings: Homo sapiens, 1 micromolar, read-out: Percentage of inhibition of cell cultures
Protocol: as §1, §2, §3

Glioma = test: as above; assay type: cell-based; settings: Homo sapiens, 1 micromolar, read-out: Percentage of inhibition of cell cultures
Protocol: as §1, §2, §3

Fibrosarcoma = test: as above; assay type: cell-based; settings: Homo sapiens, 1 micromolar, read-out: Percentage of inhibition of cell cultures
Protocol: as §1, §2, §3

Ewing Sarcoma = test: as above; assay type: cell-based; settings: Homo sapiens, 1 micromolar, read-out: Percentage of inhibition of cell cultures
Protocol: as §1, §2, §3

Burkitt Lymphoma [4] = test: as above; assay type: cell-based; settings: Homo sapiens, 1 micromolar, read-out: Percentage of inhibition of cell cultures
Protocol: as §1, §2, §3

Hodgkin lymphoma = test: as above; assay type: cell-based; settings: Homo sapiens, 1 micromolar, read-out: Percentage of inhibition of cell cultures
Protocol: as §1, §2, §3

[5] = test system: Gastric carcinoma (Adenocarcinoma); test: Inhibition of primary tumor cell cultures vs Kras mutation (Example 2); assay type: cell-based, human; settings: Homo sapiens, Cases with Kras mutated; 100 micromolar; read-out: Percentage of inhibition of cell cultures
Protocol: (§4) Cell cultures. […] Briefly, small pieces of the tumors were digested into a hyaluronidase solution (Sigma-Aldrich, USA) at a concentration of 1 mg/ml during 15 minutes at 37°C, and then they were treated with 6 mg/ml of collagenase type IV (Invitrogen) during 2 hours at 37°C. Consecutively, cells were washed, and resuspended in the DMEM culture medium with high concentration of glucose (Dulbecco's Modified Eagle's Medium, Invitrogen) supplemented with 1% of antibiotics-antimycotics (Invitrogen) and with 1% of sodium pyruvate (Invitrogen), and the cells were seeded in culture slides at a concentration of 10.000 cells per square centimeter. When cells reached confluence, the adherent cells were separated using sterile trypsin at 0,5% (Invitrogen) and they were used among passages 3 and 9. For the assays shown next, tumor cells were seeded on slides at a concentration of 25.000 cells per well. A total of 6 wells containing the tumor cells were used as survival control. […] All the cultures were kept during 48 hours and later on recollected for their analysis.
(§5) In each case the presence or not of mutations in K-ras gene was determined.
(§6) To determine the existence of mutations in the K-ras gene DNA from cancer tumor cells was extracted from samples obtained from the different cancer tumor cells, using DNA extraction kits from Takara (Madison, WI, US) or Ambion (Huntingdon, Cambridgeshire, United Kingdom), following the manufacturer's instructions, and as it has been previously published (Di Fiore F, et al. 2007). Consecutively it was analyzed by sequencing the exon 2 of the KRAS gene, , by means of PCR amplification from previously extracted cancer tumor DNA, using the following sense primer (SEQ ID NO. 15): 5'-[sequence]-3' and anti-sense primer (SEQ ID NO. 16): 5'-[sequence]-3'. After the purification using the Qiagen extraction kit, the PCR products were sequenced using the Big Dye Terminator Kit V3.1 (Applied Biosystems, Foster City, CA, U.S.) and an ABI Prism 377 or 3100 DNA sequencer (Applied Biosystems). The presence of a heterozygous mutation in the KRAS gene in cancer tumor cells of the cultures was defined as the appearance of a mutant peak of a height of at least a third of the wild type. All the sequence analysis were executed at least twice in two independent PCR.
(§7) The antibody against NK1 receptor (Table 16) was used at 1/50 concentration. The percentages of inhibition are expressed in percentage of variation in relation to control ± standard deviation.

[6] = test system: Pancreatic carcinoma (Adenocarcinoma); test: as above; assay type: cell-based, human; settings: Homo sapiens, Cases with Kras mutated; 100 micromolar; read-out: Percentage of inhibition of cell cultures
Protocol: as §4, §5, §6, §7

[7] = test system: Ovarian carcinoma (Adenocarcinoma); test: as above; assay type: cell-based, human; settings: Homo sapiens, Cases with Kras mutated; 100 micromolar; read-out: Percentage of inhibition of cell cultures
Protocol: as §4, §5, §6, §7

[8] = test system: Lung carcinoma (small cell lung carcinoma); test: as above; assay type: cell-based, human; settings: Homo sapiens, Cases with Kras mutated; 100 micromolar; read-out: Percentage of inhibition of cell cultures
Protocol: (§8) To obtain tumor cells from human primary tumors we used the method described in De Bari et al. (De Bari et al. 2001). Briefly, small pieces of the tumors were digested into a hyaluronidase solution (Sigma-Aldrich, USA) at a concentration of 1 mg/ml during 15 minutes at 37°C, and then they were treated with 6 mg/ml of collagenase type IV (Invitrogen) during 2 hours at 37°C. Consecutively, cells were washed, and resuspended in the DMEM culture medium with high concentration of glucose (Dulbecco's Modified Eagle's Medium, Invitrogen) supplemented with 1% of antibiotics-antimycotics (Invitrogen) and with 1% of sodium pyruvate (Invitrogen), and the cells were seeded in culture slides at a concentration of 10.000 cells per square centimeter. When cells reached confluence, the adherent cells were separated using sterile trypsin at 0,5% (Invitrogen) and they were used among passages 3 and 9. For the assays shown next, tumor cells were seeded on slides at a concentration of 25.000 cells per well. A total of 6 wells containing the tumor cells were used as survival control. […] All the cultures were kept during 48 hours and later on recollected for their analysis.
as §5, §6, §7

[9] = test system: Lung carcinoma (non small cell lung carcinoma); test: as above; assay type: cell-based, human; settings: Homo sapiens, Cases with Kras mutated; 100 micromolar; read-out: Percentage of inhibition of cell cultures
Protocol: as §8, §5, §6, §7

[10] = test system: Thyroid carcinoma (follicular carcinoma); test: as above; assay type: cell-based, human; settings: Homo sapiens, Cases with Kras mutated; 100 micromolar; read-out: Percentage of inhibition of cell cultures
Protocol: as §8, §5, §6, §7

[11] = test system: Thyroid carcinoma (papillary carcinoma); test: as above; assay type: cell-based, human; settings: Homo sapiens, Cases with Kras mutated; 100 micromolar; read-out: Percentage of inhibition of cell cultures
Protocol: as §8, §5, §6, §7

[12] = test system: Urinary bladder carcinoma (transitional cell carcinoma); test: as above; assay type: cell-based, human; settings: Homo sapiens, Cases with Kras mutated; 100 micromolar; read-out: Percentage of inhibition of cell cultures
Protocol: as §8, §5, §6, §7

Prostate carcinoma = test: as above; assay type: cell-based, human; settings: Homo sapiens, Cases with Kras mutated; 100 micromolar; read-out: Percentage of inhibition of cell cultures
Protocol: as §1, §5, §6
(§9) The percentages of inhibition are expressed in percentage of variation in relation to control ± standard deviation.

[13] = test system: Melanoma (Nodular Melanoma); test: as above; assay type: cell-based, human; settings: Homo sapiens, Cases with Kras mutated; 100 micromolar; read-out: Percentage of inhibition of cell cultures
Protocol: as §1, §5, §6, §9

[14] = test system: Non Hodgkin Lymphoma B (diffuse B cell lymphoma); test: as above; assay type: cell-based, human; settings: Homo sapiens, B-cell, Cases with Kras mutated; 100 micromolar; read-out: Percentage of inhibition of cell cultures
Protocol: as §1, §5, §6, §9

Burkitt Lymphoma [15] = test: as above; assay type: cell-based, human; settings: Homo sapiens, Cases with Kras mutated; 100 micromolar; read-out: Percentage of inhibition of cell cultures
Protocol: as §1, §5, §6, §7

[16] = test system: human primary tumor cells; test: Inhibition of primary tumor cell cultures vs absence or presence of AKT protein (Example 4; tumor type per table line); assay type: cell-based; settings: Non Hodgkin Lymphoma B (diffuse B cell lymphoma); cases with presence of AKT; 100 micromolar
Protocol: as §4
Afterwards, the cells were cultured in presence of several antagonists of the NK1 receptor.
In each case it was determined the presence or absence of the AKT protein effector downstream in the PI3 Kinases pathway.
To determine the presence of the AKT protein in the different cultures Western Blot technique was performed (following the description in example 1-Western Blot section), but using as primary antibody with reference: Akt (pan) (11E7) Rabbit mAb (4685, Cell Signalling).
The antibody against NK1 receptor (Table 26) was used at 1/50 concentration. The percentages of inhibition are expressed in percentage of variation in relation to control ± standard deviation.

[17] = test system: human primary tumor cells; test: Inhibition of primary tumor cell cultures vs low or high expression of the truncated form of NK1 receptor (Example 5; tumor type per table line); assay type: cell-based; settings: 100 micromolar
Protocol: as §1
The presence of the truncated form of NK1 receptor was determined and then cells were cultured in presence of several antagonists of the NK1 receptor.
In each case the presence of the truncated form of the NK1 receptor was determined.
To determine the presence of the truncated form of the gene of NK1 receptor PCR technique was performed (Polymerase Chain Reaction). The extraction of RNA, amplifications of PCR, cycle conditions and quantitative analysis were executed as it has been previously described. The specific primers were the following: For the full-length NK1R receptor (NM_001058.3; forward (SEQ ID NO: 17)-: 5'-[sequence]-3 ' and reverse- (SEQ ID NO:18): 5'-[sequence]-3') and for the truncated NK1receptor (NM_015727.2; forward (SEQ ID NO: 19): 5'-[sequence]-3 and reverse (SEQ ID NO;20): 5'-[sequence]-3').
Cases were distributed in two groups: • Group A -low expression of the truncated form of NK1 receptor- for those cases wherein the expression of the truncated form of NK1 receptor was less than double the expression of the full length form of such receptor. • Group B -high expression of the truncated form of NK1 receptor- for those cases wherein the expression of the truncated form of the NK1 receptor was higher than double the expression of the full length form of such receptor.
The percentages of inhibition are expressed in percentage of variation in relation to the control ± standard deviation.

Endometrium carcinoma = test: cells; settings: Homo sapiens, 1 micromolar
Protocol: as §1, §2, §3

[18] = NK1 receptor immunostaining Group 1 (less than 20% of the cells)
[19] = NK1 receptor immunostaining Group 2 (20-80% of the cells)
[20] = NK1 receptor immunostaining Group 3 (more than 80% of the cells)
[21] = NK1 receptor immunostaining Intensity grade 1
[22] = NK1 receptor immunostaining Intensity grade 2
[23] = NK1 receptor immunostaining Intensity grade 3

SMILES: C[C@@H](O[C@H]1OCCN(Cc2n[nH]c(=O)[nH]2)[C@H]1c1ccc(F)cc1)c1cc(C(F)(F)F)cc(C(F)(F)F)c1 [Aprepitant]
- inhibition at 1 µM (Gastric carcinoma; [18]): 10 ± 3%
- inhibition at 1 µM (Gastric carcinoma; [19]): 45 ± 3%
- inhibition at 1 µM (Gastric carcinoma; [20]): 92 ± 3%
- inhibition at 1 µM (Gastric carcinoma; [21]): 25 ± 6%
- inhibition at 1 µM (Gastric carcinoma; [22]): 57 ± 5%
- inhibition at 1 µM (Gastric carcinoma; [23]): 96 ± 4%
- inhibition at 1 µM (Colon carcinoma; [18]): 11 ± 4%
- inhibition at 1 µM (Colon carcinoma; [19]): 44 ± 2%
- inhibition at 1 µM (Colon carcinoma; [20]): 95 ± 4%
- inhibition at 1 µM (Colon carcinoma; [21]): 26 ± 6%
- inhibition at 1 µM (Colon carcinoma; [22]): 56 ± 6%
- inhibition at 1 µM (Colon carcinoma; [23]): 95 ± 5%
- inhibition at 1 µM (Renal cell carcinoma; [18]): 10 ± 3%
- inhibition at 1 µM (Renal cell carcinoma; [19]): 45 ± 4%
- inhibition at 1 µM (Renal cell carcinoma; [20]): 93 ± 6%
- inhibition at 1 µM (Renal cell carcinoma; [21]): 27 ± 6%
- inhibition at 1 µM (Renal cell carcinoma; [22]): 57 ± 6%
- inhibition at 1 µM (Renal cell carcinoma; [23]): 95 ± 6%
- inhibition at 1 µM [1, 18]: 10 ± 2%
- inhibition at 1 µM [1, 19]: 48 ± 5%
- inhibition at 1 µM [1, 20]: 95 ± 5%
- inhibition at 1 µM [1, 21]: 27 ± 4%
- inhibition at 1 µM [1, 22]: 56 ± 4%
- inhibition at 1 µM [1, 23]: 95 ± 4%
- inhibition at 1 µM [2, 18]: 10 ± 2%
- inhibition at 1 µM [2, 19]: 42 ± 3%
- inhibition at 1 µM [2, 20]: 97 ± 6%
- inhibition at 1 µM [2, 21]: 29 ± 6%
- inhibition at 1 µM [2, 22]: 56 ± 6%
- inhibition at 1 µM [2, 23]: 96 ± 4%
- inhibition at 1 µM [3, 18]: 10 ± 2%
- inhibition at 1 µM [3, 19]: 45 ± 2%
- inhibition at 1 µM [3, 20]: 97 ± 5%
- inhibition at 1 µM [3, 21]: 26 ± 6%
- inhibition at 1 µM [3, 22]: 57 ± 5%
- inhibition at 1 µM [3, 23]: 95 ± 5%
- inhibition at 1 µM (Glioma; [18]): 11 ± 4%
- inhibition at 1 µM (Glioma; [19]): 47 ± 4%
- inhibition at 1 µM (Glioma; [20]): 94 ± 6%
- inhibition at 1 µM (Glioma; [21]): 28 ± 7%
- inhibition at 1 µM (Glioma; [22]): 55 ± 6%
- inhibition at 1 µM (Glioma; [23]): 97 ± 4%
- inhibition at 1 µM (Fibrosarcoma; [18]): 10 ± 3%
- inhibition at 1 µM (Fibrosarcoma; [19]): 48 ± 3%
- inhibition at 1 µM (Fibrosarcoma; [20]): 96 ± 5%
- inhibition at 1 µM (Fibrosarcoma; [21]): 27 ± 6%
- inhibition at 1 µM (Fibrosarcoma; [22]): 54 ± 5%
- inhibition at 1 µM (Fibrosarcoma; [23]): 95 ± 5%
- inhibition at 1 µM (Ewing Sarcoma; [18]): 11 ± 2%
- inhibition at 1 µM (Ewing Sarcoma; [19]): 48 ± 6%
- inhibition at 1 µM (Ewing Sarcoma; [20]): 94 ± 6%
- inhibition at 1 µM (Ewing Sarcoma; [21]): 27 ± 6%
- inhibition at 1 µM (Ewing Sarcoma; [22]): 57 ± 4%
- inhibition at 1 µM (Ewing Sarcoma; [23]): 95 ± 6%
- inhibition at 1 µM (Burkitt Lymphoma [4]; [18]): 10 ± 2%
- inhibition at 1 µM (Burkitt Lymphoma [4]; [19]): 45 ± 6%
- inhibition at 1 µM (Burkitt Lymphoma [4]; [20]): 96 ± 4%
- inhibition at 1 µM (Burkitt Lymphoma [4]; [21]): 27 ± 5%
- inhibition at 1 µM (Burkitt Lymphoma [4]; [22]): 55 ± 3%
- inhibition at 1 µM (Burkitt Lymphoma [4]; [23]): 92 ± 5%
- inhibition at 1 µM (Hodgkin lymphoma; [18]): 10 ± 3%
- inhibition at 1 µM (Hodgkin lymphoma; [19]): 49 ± 3%
- inhibition at 1 µM (Hodgkin lymphoma; [20]): 94 ± 5%
- inhibition at 1 µM (Hodgkin lymphoma; [21]): 26 ± 5%
- inhibition at 1 µM (Hodgkin lymphoma; [22]): 55 ± 3%
- inhibition at 1 µM (Hodgkin lymphoma; [23]): 92 ± 6%
- inhibition at 100 µM [5]: 24 ± 3%
- inhibition at 100 µM [6]: 22 ± 4%
- inhibition at 100 µM [7]: 24 ± 5%
- inhibition at 100 µM [8]: 22 ± 4%
- inhibition at 100 µM [9]: 21 ± 2%
- inhibition at 100 µM [10]: 26 ± 3%
- inhibition at 100 µM [11]: 25 ± 4%
- inhibition at 100 µM [12]: 26 ± 5%
- inhibition at 100 µM (Prostate carcinoma): 24 ± 3%
- inhibition at 100 µM [13]: 26 ± 4%
- inhibition at 100 µM [14]: 27 ± 5%
- inhibition at 100 µM (Burkitt Lymphoma [15]): 24 ± 3%
- Percentage of inhibition of cell cultures [16]: 95±3 percentage
- Percentage of inhibition of cell cultures ([17]; Non Hodgkin Lymphoma B (diffuse B cell lymphoma), Cases with low expression of the truncated form of NK1 receptor (Group A)): 23±4 percentage
- Percentage of inhibition of cell cultures ([17]; Non Hodgkin Lymphoma T (diffuse T cell lymphoma), Cases with high expression of the truncated form of NK1 receptor (Group B)): 98±6 percentage
- Percentage of inhibition of cell cultures ([17]; Ovarian carcinoma (Adenocarcinoma), Cases with low expression of the truncated form of NK1 receptor (Group A)): 29±3 percentage
- inhibition at 1 µM (Endometrium carcinoma; read-out: Percentage of inhibition of cell cultures, NK1 receptor immunostaining Group 1 (less than 20% of the cells)): 12 ± 2%
- inhibition at 1 µM (Endometrium carcinoma; read-out: Percentage of inhibition of cell cultures, NK1 receptor immunostaining Group 2 (20-80% of the cells)): 49 ± 2%
- inhibition at 1 µM (Endometrium carcinoma; read-out: Percentage of inhibition of cell cultures, NK1 receptor immunostaining Group 3 (more than 80% of the cells)): 95 ± 4%
- inhibition at 1 µM (Endometrium carcinoma; read-out: Percentage of inhibition of cell cultures, NK1 receptor immunostaining Intensity grade 1): 25 ± 7%
- inhibition at 1 µM (Endometrium carcinoma; read-out: Percentage of inhibition of cell cultures, NK1 receptor immunostaining Intensity grade 2): 59 ± 5%
